Molecules are shown by their SMILES.

The target in this test is T1, GLP-1 Receptor (Homo sapiens, UniProt P43220).
T1 construct: host or cells: HEK293/GLP1R/CRE-LUC (HEK293/CRE-Luc stably expressing the GLP-1 receptor)
The test is described as follows: GLP-1R agonist cAMP stimulation assay (HEK293/GLP1R/CRE-LUC cells, Cisbio cAMP dynamic 2 kit).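 Also: compounds tested in half-log serial dilution, cAMP detected with cAMP-d2 and anti-cAMP cryptate antibody reagents after 1 h at room temperature.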 Format: cell-based. Conditions: HEK293/CRE-Luc cell line stably expressing the GLP-1 Receptor; 1000 cells/well; 30 min at 37° C.; 0.5 mM IBMX, 0.1% BSA; read-out: GLP1R cAMP Stimulation DR: EC50.

T1 sequence (P43220 24-463, species assumed): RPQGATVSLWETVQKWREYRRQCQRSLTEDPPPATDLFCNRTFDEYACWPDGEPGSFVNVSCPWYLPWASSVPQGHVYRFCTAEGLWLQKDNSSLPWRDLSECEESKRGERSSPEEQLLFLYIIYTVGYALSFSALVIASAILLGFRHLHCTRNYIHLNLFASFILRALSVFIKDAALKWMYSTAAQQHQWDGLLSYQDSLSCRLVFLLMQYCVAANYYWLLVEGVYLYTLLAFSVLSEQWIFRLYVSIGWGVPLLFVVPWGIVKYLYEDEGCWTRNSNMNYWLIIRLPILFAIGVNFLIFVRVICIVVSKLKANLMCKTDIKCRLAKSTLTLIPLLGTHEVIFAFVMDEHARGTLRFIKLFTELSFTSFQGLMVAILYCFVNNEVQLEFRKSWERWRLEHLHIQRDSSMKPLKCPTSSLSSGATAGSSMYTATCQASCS

As for `CC1(c2ccc(Cl)cc2F)Oc2cccc(C3CCN(Cc4ncc(-c5nnc(C(F)(F)F)[nH]5)cc4CCS(C)(=O)=O)CC3)c2O1` (stereo not drawn) [Compound 267, 2-({4-[2-(4-chloro-2-fluorophenyl)-2-methyl-2H-1,3-benzodioxol-4-yl]piperidin-1-yl}methyl)-3-(2-methanesulfonylethyl)-5-[5-(trifluoromethyl)-4H-1,2,4-triazol-3-yl]pyridine], the EC50 worked out at 4.7 nM. With `COCCc1cc(-c2noc(=O)[nH]2)cnc1CN1CCC(c2cccc3c2OC(C)(c2ccc(Cl)cc2F)O3)CC1` (stereo not drawn) [Compound 268, 3-[6-({4-[2-(4-chloro-2-fluorophenyl)-2-methyl-2H-1,3-benzodioxol-4-yl]piperidin-1-yl}methyl)-5-(2-methoxyethyl)pyridin-3-yl]-4,5-dihydro-1,2,4-oxadiazol-5-one] the figure was 7.7 nM; with `C[C@]1(c2ccc(Cl)cn2)Oc2cccc(C3CCN(Cc4ncc(-c5nnc(C(F)(F)F)[nH]5)cc4CC4(C#N)CC4)CC3)c2O1` [Compound 277, 1-{[2-({4-[(2S)-2-(5-chloropyridin-2-yl)-2-methyl-2H-1,3-benzodioxol-4-yl]piperidin-1-yl}methyl)-5-[5-(trifluoromethyl)-4H-1,2,4-triazol-3-yl]pyridin-3-yl]methyl}cyclopropane-1-carbonitrile], 0.023 nM. With `C[C@]1(c2ccc(Cl)cc2F)Oc2cccc(C3CCN(Cc4ncc(-c5nnc(C(F)(F)F)[nH]5)cc4C4CCOC4)CC3)c2O1` (stereo partly drawn) [Compound 282, 2-({4-[(2S)-2-(4-chloro-2-fluorophenyl)-2-methyl-2H-1,3-benzodioxol-4-yl]piperidin-1-yl}methyl)-3-(oxolan-3-yl)-5-[5-(trifluoromethyl)-4H-1,2,4-triazol-3-yl]pyridine] the figure was 3.7 nM; with `Cc1cc(-c2nnc(C(F)(F)F)[nH]2)cnc1CN1CCC(c2cccc3c2O[C@@](C)(c2ccc(C#N)cc2F)O3)CC1` [Compound 286, 3-fluoro-4-[(2S)-2-methyl-4-[1-({3-methyl-5-[5-(trifluoromethyl)-4H-1,2,4-triazol-3-yl]pyridin-2-yl}methyl)piperidin-4-yl]-2H-1,3-benzodioxol-2-yl]benzonitrile], 1.38 nM. With `CCOCCc1cc(-c2nnc(C(F)(F)F)[nH]2)cnc1CN1CCC(c2cccc3c2O[C@@](C)(c2ccc(Cl)cc2F)O3)CC1` [Compound 287, 2-({4-[(2S)-2-(4-chloro-2-fluorophenyl)-2-methyl-2H-1,3-benzodioxol-4-yl]piperidin-1-yl}methyl)-3-(2-ethoxyethyl)-5-[5-(trifluoromethyl)-4H-1,2,4-triazol-3-yl]pyridine] the figure was 0.87 nM.

A word on the EC50: it is the concentration needed to bring the measured effect to its halfway point.

The values above are taken from patent US11897851B2, “Heterocyclic GLP-1 agonists” (Gasherbrum Bio, Inc., priority 2021, dated 2024).
